Measurements: ChEMBL document CHEMBL5223082, “Alkyl-Aryl-Vancomycins: Multimodal Glycopeptides with Weak Dependence on the Bacterial Metabolic State” (J Med Chem, 2021)
Values after ≈ are worked out from the molar mass of the structure shown. Active and inactive are the calls of the source. No cut-off for these calls is given here.

Experiments:
[1] = tested on: Staphylococcus aureus; test: Potency index, ratio of Vancomycin MIC to test compound MIC for antibacterial activity against Methicillin-resistant Staphylococcus aureus ATCC 33591; format: functional
[2] = tested on: Staphylococcus aureus; test: Potency index, ratio of Vancomycin MIC to test compound MIC for antibacterial activity against Vancomycin-resistant Staphylococcus aureus 1; format: functional
[3] = tested on: Staphylococcus aureus; test: Potency index, ratio of Vancomycin MIC to test compound MIC for antibacterial activity against Vancomycin-resistant Staphylococcus aureus 4; format: functional
[4] = tested on: Enterococcus; test: Antibacterial activity against Vancomycin-resistant Enterococci NR30903 assessed as inhibition of bacterial growth incubated for 18 to 24 hrs by CLSI microbroth dilution method; format: functional; conditions: time 18-24 hrs
[5] = tested on: Staphylococcus aureus; test: Antibacterial activity against Vancomycin-resistant Staphylococcus aureus 1 assessed as inhibition of bacterial growth incubated for 18 to 24 hrs by CLSI microbroth dilution method; format: functional; conditions: time 18-24 hrs
[6] = tested on: Staphylococcus aureus; test: Antibacterial activity against Vancomycin-resistant Staphylococcus aureus 4 assessed as inhibition of bacterial growth incubated for 18 to 24 hrs by CLSI microbroth dilution method; format: functional; conditions: time 18-24 hrs
[7] = tested on: Enterococcus; test: Antibacterial activity against Vancomycin-resistant Enterococci ATCC 51575 assessed as inhibition of bacterial growth incubated for 18 to 24 hrs by CLSI microbroth dilution method; format: functional; conditions: time 18-24 hrs
[8] = tested on: Enterococcus; test: Potency index, ratio of Vancomycin MIC to test compound MIC for antibacterial activity against Vancomycin-resistant Enterococci NR30909; format: functional, NR 30909
[9] = tested on: Enterococcus; test: Antibacterial activity against Vancomycin-resistant Enterococci ATCC 51559 assessed as inhibition of bacterial growth incubated for 18 to 24 hrs by CLSI microbroth dilution method; format: functional; conditions: time 18-24 hrs
[10] = tested on: Staphylococcus aureus; test: Antibacterial activity against Vancomycin-resistant Staphylococcus aureus 12 assessed as inhibition of bacterial growth incubated for 18 to 24 hrs by CLSI microbroth dilution method; format: functional; conditions: time 18-24 hrs
[11] = tested on: Staphylococcus aureus; test: Potency index, ratio of Vancomycin MIC to test compound MIC for antibacterial activity against Vancomycin-resistant Staphylococcus aureus 12; format: functional
[12] = Induction of hemolysis in human erythrocytes incubated for 1 hr by microtiter plater reader analysis; format: toxicity, cell-based, Erythrocyte
[13] = tested on: Enterococcus; test: Potency index, ratio of Vancomycin MIC to test compound MIC for antibacterial activity against Vancomycin-resistant Enterococci NR30903; format: functional, NR 30903
[14] = tested on: Enterococcus; test: Potency index, ratio of Vancomycin MIC to test compound MIC for antibacterial activity against Vancomycin-resistant Enterococci ATCC 51575; format: functional
[15] = tested on: Enterococcus; test: Potency index, ratio of Vancomycin MIC to test compound MIC for antibacterial activity against Vancomycin-resistant Enterococci ATCC 51559; format: functional
[16] = tested on: Staphylococcus aureus; test: Antibacterial activity against Methicillin-resistant Staphylococcus aureus ATCC 33591 assessed as inhibition of bacterial growth incubated for 18 to 24 hrs by CLSI microbroth dilution method; format: functional; conditions: time 18-24 hrs
[17] = tested on: Enterococcus; test: Antibacterial activity against Vancomycin-resistant Enterococci NR30909 assessed as inhibition of bacterial growth incubated for 18 to 24 hrs by CLSI microbroth dilution method; format: functional; conditions: time 18-24 hrs
[18] = Induction of hemolysis in human erythrocytes at 250 uM incubated for 1 hr by microtiter plater reader analysis; format: toxicity, cell-based, Erythrocyte; conditions: read-out: Activity
[19] = tested on: Staphylococcus aureus; test: Antibiofilm activity against Methicillin-resistant Staphylococcus aureus ATCC 33591 assessed as bacterial biofilm thickness at 20 uM incubated for 24 hrs by confocal laser scanning microscopy (reference value: 8 micrometer); format: functional
[20] = tested on: Staphylococcus aureus; test: Ratio of MIC for antibacterial activity against Methicillin-resistant Staphylococcus aureus ATCC 33591 in presence of N,N'-diacetyl-L-Lys-D-Ala-D-Ala to MIC for antibacterial activity against Methicillin-resistant Staphylococcus aureus ATCC 33591; format: functional
[21] = tested on: Staphylococcus aureus; test: Bactericidal activity against methicillin-resistant Staphylococcus aureus ATCC 33591 assessed as reduction in bacterial colonies at MIC to 8XMIC incubated for 6 hrs in broth solution followed by culturing for 24 hrs on agar plate by spot plating method; format: functional, organism-based; conditions: time 30.0 hrs
[22] = tested on: Staphylococcus aureus; test: Antibacterial activity against Methicillin-resistant Staphylococcus aureus ATCC 33591 assessed as log reduction in bacterial colonies at 10XMIC incubated for 1 hr in broth solution followed by plating on nutrient agar plate; format: functional
[23] = tested on: Bacillus subtilis; test: Inhibition of cell wall biosynthesis in Bacillus subtilis 168 assessed as bubble-like formation on bacterial cell surface at PEC incubated for 15 mins by light microscopic analysis; format: functional, organism-based
[24] = tested on: Staphylococcus aureus; test: Antibacterial activity against Methicillin-resistant Staphylococcus aureus ATCC 33591 persister cells assessed as reduction in bacterial colonies at 40 uM incubated for 24 hrs in broth solution followed by incubation on agar plate for 48 hrs by spot plating method; format: functional, organism-based; conditions: time 72.0 hrs
[25] = tested on: Staphylococcus aureus; test: Ratio of MIC for antibacterial activity against Methicillin-resistant Staphylococcus aureus ATCC 33591 measured after 27 passages to MIC for antibacterial activity against Methicillin-resistant Staphylococcus aureus ATCC 33591 measured after 18 to 24 hrs incubation; format: functional
[26] = tested on: Bacillus subtilis; test: Antibacterial activity against Bacillus subtilis 168 assessed as concentration that requires for bacterial growth retardation measured for every 30 mins; format: functional
[27] = molecular target: T1, Septum site-determining protein MinD (Bacillus subtilis (strain 168)) (UniProt Q01464); test: Delocalization of GFP tagged-MinD in Bacillus subtilis 168 at PEC incubated for 15 mins by fluorescence microscopy
T1 sequence (whole entry): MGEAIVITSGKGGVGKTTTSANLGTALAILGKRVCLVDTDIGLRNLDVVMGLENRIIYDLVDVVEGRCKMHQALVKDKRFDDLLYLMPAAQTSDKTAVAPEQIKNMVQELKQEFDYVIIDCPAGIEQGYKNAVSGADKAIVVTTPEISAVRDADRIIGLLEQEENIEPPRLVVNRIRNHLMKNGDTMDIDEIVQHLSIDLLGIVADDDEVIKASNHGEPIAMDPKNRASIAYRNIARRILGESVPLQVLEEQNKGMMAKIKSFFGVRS

[28] = tested on: Cell membrane; test: Induction of cytoplasmic membrane depolarization in Methicillin-resistant Staphylococcus aureus ATCC 33591 assessed as increase in fluorescence intensity at 10 uM measured for 35 to 40 mins by DiSC3(5) dye based fluorescence analysis; format: subcellular; conditions: time 35-40 min
[29] = tested on: Cell membrane; test: Induction of cytoplasmic membrane depolarization in Bacillus subtilis assessed as increase in fluorescence intensity at 10 uM measured for 35 to 40 mins by DiSC3(5) dye based fluorescence analysis; format: subcellular; conditions: time 35-40 min
[30] = tested on: Staphylococcus aureus; test: Antibiofilm activity against Methicillin-resistant Staphylococcus aureus ATCC 33591 assessed as log reduction in bacterial viability within the biofilms at 20 uM incubated for 24 hrs in broth solution followed by culturing on agar plate for 24 hrs by spot plating method; format: functional; conditions: time 48 hrs
[31] = tested on: Cell membrane; test: Induction of cytoplasmic membrane depolarization in Vancomycin-resistant Enterococci assessed as increase in fluorescence intensity at 10 uM measured for 35 to 40 mins by DiSC3(5) dye based fluorescence analysis; format: subcellular; conditions: Enterococcus, time 35-40 min
[32] = tested on: Staphylococcus aureus; test: Antibacterial activity against Methicillin-resistant Staphylococcus aureus ATCC 33591 assessed as time duration of post-antibiotic effect for suppression of bacterial growth at 10XMIC incubated for 1 hr in broth solution followed by washing for drug removal and subsequent plating on nutrient agar plate; format: functional
[33] = tested on: Staphylococcus aureus; test: Antibacterial activity against Methicillin-resistant Staphylococcus aureus ATCC 33591 assessed as inhibition of bacterial growth preincubated compound with teichoic-acid for 1 hr followed by incubation with bacterial culture for 18 to 24 hrs by CLSI microbroth dilution method; format: functional; conditions: time 19-25 hrs
[34] = tested on: Staphylococcus aureus; test: Antibacterial activity against Methicillin-resistant Staphylococcus aureus ATCC 33591 assessed as inhibition of bacterial growth preincubated compound with N,N'-diacetyl-L-Lys-D-Ala-D-Ala for 10 mins followed by incubation with bacterial culture for 18 to 24 hrs by CLSI microbroth dilution method; format: functional; conditions: time 1090-1450 min

SMILES	Ratio [1]	Ratio [2]	Ratio [3]	MIC [4] [µM]	MIC [5] [µM]	MIC [6] [µM]	MIC [7] [µM]	Ratio [8]	MIC [9] [µM]	MIC [10] [µM]	Ratio [11]	HC50 at 1 h [12] [µM]	Ratio [13]	Ratio [14]	Ratio [15]	MIC [16] [µM]	MIC [17] [µM]	hemolysis at 1 h, 250 µM [18] [%]	also measured
CCCCCCCCNC(=O)c1ccc(CN[C@@]2(C)C[C@H](O[C@H]3[C@H](Oc4c5cc6cc4Oc4ccc(cc4Cl)[C@@H](O)[C@@H](NC(=O)[C@@H](CC(C)C)NC)C(=O)N[C@@H](CC(N)=O)C(=O)N[C@H]6C(=O)N[C@H]4C(=O)N[C@H](C(=O)N[C@H](C(=O)O)c6cc(O)cc(O)c6-c6cc4ccc6O)[C@H](O)c4ccc(c(Cl)c4)O5)O[C@H](CO)[C@@H](O)[C@@H]3O)O[C@@H](C)[C@H]2O)cc1	2	166	166	4.2 (≈ 7.12 µg/mL)	4.2 (≈ 7.12 µg/mL)	2.1 (≈ 3.56 µg/mL)	1 (≈ 1.69 µg/mL)	166	8.3 (≈ 14.1 µg/mL)	0.3 (≈ 0.508 µg/mL)	166	> 250	166	166	166	1 (≈ 1.69 µg/mL)	2.1 (≈ 3.56 µg/mL)		
CN[C@H](CC(C)C)C(=O)N[C@H]1C(=O)N[C@@H](CC(N)=O)C(=O)N[C@H]2C(=O)N[C@H]3C(=O)N[C@H](C(=O)N[C@H](C(=O)O)c4cc(O)cc(O)c4-c4cc3ccc4O)[C@H](O)c3ccc(c(Cl)c3)Oc3cc2cc(c3O[C@@H]2O[C@H](CO)[C@@H](O)[C@H](O)[C@H]2O[C@H]2C[C@](C)(NCc3ccc(C(=O)NCCC[N+](C)(C)Cc4ccc(-c5ccccc5)cc4)cc3)[C@H](O)[C@H](C)O2)Oc2ccc(cc2Cl)[C@H]1O		47	47	7.3	7.3	7.3	14.7	47	14.7	3.7	47	> 250	47	47	47	0.5	3.7	0	
CCCCCCNC(=O)C[N+](C)(C)CCCNC(=O)c1ccc(CN[C@@]2(C)C[C@H](O[C@H]3[C@H](Oc4c5cc6cc4Oc4ccc(cc4Cl)[C@@H](O)[C@@H](NC(=O)[C@@H](CC(C)C)NC)C(=O)N[C@@H](CC(N)=O)C(=O)N[C@H]6C(=O)N[C@H]4C(=O)N[C@H](C(=O)N[C@H](C(=O)O)c6cc(O)cc(O)c6-c6cc4ccc6O)[C@H](O)c4ccc(c(Cl)c4)O5)O[C@H](CO)[C@@H](O)[C@@H]3O)O[C@@H](C)[C@H]2O)cc1	2	10	10	7.4	14.9	29.8	> 30	10	> 30	7.4	10	> 250	10	10	10	0.4	14.9	1	
CN[C@H](CC(C)C)C(=O)N[C@H]1C(=O)N[C@@H](CC(N)=O)C(=O)N[C@H]2C(=O)N[C@H]3C(=O)N[C@H](C(=O)N[C@H](C(=O)O)c4cc(O)cc(O)c4-c4cc3ccc4O)[C@H](O)c3ccc(c(Cl)c3)Oc3cc2cc(c3O[C@@H]2O[C@H](CO)[C@@H](O)[C@H](O)[C@H]2O[C@H]2C[C@](C)(N)[C@H](O)[C@H](C)O2)Oc2ccc(cc2Cl)[C@H]1O [VANCOMYCIN]				692 (≈ 1000 µg/mL)	346 (≈ 501 µg/mL)	346 (≈ 501 µg/mL)	346 (≈ 501 µg/mL)		1380 (≈ 2010 µg/mL)	346 (≈ 501 µg/mL)						0.6 (≈ 0.87 µg/mL)	346 (≈ 501 µg/mL)		Activity [19]: 7 um; Ratio [20]: >40; Activity [21]: Active; Activity [22]: 0.5 log10CFU/ml; inhibition [23]: Active; Activity [24]: inactive; Ratio [25]: 2; EC [26]: 0.4 µM; Activity [27]: inactive; Activity [28]: inactive; Activity [29]: inactive; Activity [30]: 0.9 log10CFU/ml; Activity [31]: inactive; Time [32]: 6 h; MIC [33]: 0.6 µM (≈ 0.87 µg/mL); MIC [34]: > 30 µM
